Values of other authors, collected in PubChem BioAssay AID1259410 (Chemical Carcinogenesis Research Information System (CCRIS), 2018).

Test system: rodent tumor promotion studies, tumor incidence
Test: CCRIS tumor promotion studies

For `C=C1C(O)C2OC3(CCC(/C=C/C(C)C4CC(C)=CC5(OC(CC(C)(O)C(=O)O)CCC5O)O4)O3)CCC2OC1C(O)CC(C)C1OC2(CCC1C)OCCCC2C` (configuration not stated), the outcome (Carcinogen: 7,12-DIMETHYLBENZ[A]ANTHRACENE, 57-97-6, Doses [Carcinogen]: 100 UG IN 0.1 ML OF ACETONE ONCE, Doses [Promoter]: 0, 5 UG IN 0.1 ML OF ACETONE 2/WK FOR 30 WK BEGINNING 1 WK POST CARCINOGEN DOSE (STUDY DURATION: 31 WK), Route [Carcinogen]: DERMAL, Route [Promoter]: DERMAL, Species: MOUSE, Strain/Sex: CD-1/FEMALE) is listed as “skin: tumor”.

In the case of `C#CCN(C)Cc1ccccc1`, the outcome (Carcinogen: AZOXYMETHANE, 25843-45-2, Doses [Carcinogen]: 7.4 MG/KG BW IN 0.9% SALINE 1/WK FOR 10 WK, Doses [Promoter]: 0, 50 MG/KG BW 1/2 D FOR 35 WK (STUDY DURATION: 35 WK), Route [Carcinogen]: SUBCUTANEOUS, Route [Promoter]: SUBCUTANEOUS, Species: RAT, Strain/Sex: WISTAR/MALE) is listed as “colon: tumor”.

For `S=c1nc[nH]c2nc[nH]c12`, the outcome (Carcinogen: UV IRRADIATION, Doses [Carcinogen]: 0.53 J/CM2 INCREASED BY 20% EVERY 2 WK TO 1.60 J/CM2 AND MAINTAINED AT 1.60 J/CM2 UNTIL DEATH, ADMINISTERED 5 D/WK FOR 1, Doses [Promoter]: 0, 15 UG/G BEGINNING 2 WK POST FIRST CARCINOGEN DOSE ADMINISTERED 2 HR PRIOR TO EACH CARCINOGEN DOSE (STUDY DURATION: 30, Route [Carcinogen]: DERMAL, Route [Promoter]: INTRAPERITONEAL, Species: MOUSE, Strain/Sex: SKH/HRL/FEMALE) is given as “skin: tumor”.

In the case of `CC(=O)Nc1ccc2c(c1)C(=O)c1ccccc1-2`, the outcome (Carcinogen: DIETHYLNITROSAMINE, 55-18-5, Doses [Carcinogen]: 200 MG/KG BW IN 0.9% SALINE ONCE, Doses [Promoter]: 0, 0.1 MMOL/KG BW IN POLYETHYLENE GLYCOL FOR 5 D BEGINNING 1 WK POST CARCINOGEN DOSE, 70% HEPATECTOMY PERFORMED 3 D AFTE, Route [Carcinogen]: INTRAPERITONEAL, Route [Promoter]: GAVAGE, Species: RAT, Strain/Sex: SPRAGUE-DAWLEY/MALE) is listed as “liver: hepatocellular carcinoma”.

For `CC(C)(C)NC(=O)[C@H]1CC[C@H]2[C@@H]3CC=C4C=C(C(=O)O)CC[C@]4(C)[C@H]3CC[C@]12C`, the outcome (Carcinogen: 3,2'-DIMETHYL-4-AMINOBIPHENYL, 13394-86-0, Doses [Carcinogen]: 50 MG/KG BW ONCE/2 WK FOR FIRST 20 WK, Doses [Promoter]: 0, 10, 50 MG/KG BW BY GAVAGE 3X/WK FOR 40 WK BEGINNING 20 WK POST CARCINOGEN TREATMENT (STUDY DURATION: 60 WK), Doses [Promoter]: 0, 10, 50 MG/KG BW BY GAVAGE 3X/WK FOR 40 WK BEGINNING 20 WK POST CARCINOGEN TREATMENT (STUDY DURATION: 60 WK), Route [Carcinogen]: SUBCUTANEOUS, Route [Promoter]: ORAL, Species: RAT, Strain/Sex: F344/MALE) is listed as “prostate (ventral): adenocarcinoma”.

For `OC[C@H]1O[C@@H]2O[C@H]3[C@H](O)[C@@H](O)[C@@H](O[C@H]4[C@H](O)[C@@H](O)[C@@H](O[C@H]5[C@H](O)[C@@H](O)[C@@H](O[C@H]6[C@H](O)[C@@H](O)[C@@H](O[C@H]7[C@H](O)[C@@H](O)[C@@H](O[C@H]8[C@H](O)[C@@H](O)[C@@H](O[C@H]1[C@H](O)[C@H]2O)O[C@@H]8CO)O[C@@H]7CO)O[C@@H]6CO)O[C@@H]5CO)O[C@@H]4CO)O[C@@H]3CO`, the outcome (Carcinogen: N-ETHYL-N-(2-HYDROXYETHYL)NITROSAMINE, Doses [Carcinogen]: 500, 1000 PPM IN DIET FOR TWO WK, Doses [Promoter]: 450 MG/KG 1/D FOR 7 D AFTER INITIATION FOR 2 WK, Route [Carcinogen]: ORAL, Route [Promoter]: SUBCUTANEOUS, Species: RAT, Strain/Sex: WISTAR/MALE) is given as “kidney: tubular cell tumor”.

For `CCCCCCCCCCCC`, the outcome (Carcinogen: 7,12-DIMETHYLBENZ(A)ANTHRACENE, Doses [Carcinogen]: TOP, Route [Carcinogen]: DERMAL, Route [Promoter]: DERMAL, Species: MOUSE, Strain/Sex: FEMALE) is listed as “integumentary system (skin)”.

In the case of `CC(=O)O[C@]1(C(C)=O)CC[C@H]2[C@@H]3C[C@H](C)C4=CC(=O)CC[C@]4(C)[C@H]3CC[C@@]21C`, the outcome (Carcinogen: 7,12-DIMETHYLBENZ[A]ANTHRACENE, 57-97-6, Doses [Carcinogen]: 1 MG IN 0.1 ML COTTONSEED OIL 1/WK AT WKS 9,10,12 AND 13 OF AGE, Doses [Promoter]: 0, 20 MG EACH IN 2 PELLETS IMPLANTED IN THE INTERSCAPULAR AREA AT 6 WK OF AGE (STUDY DURATION: 15 MO), Route [Carcinogen]: GAVAGE, Route [Promoter]: SUBCUTANEOUS IMPLANT, Species: MOUSE, Strain/Sex: CD2F1/FEMALE) is listed as “mammary gland: tumor”, the outcome (Carcinogen: METHYLNITROSOUREA, 684-93-5, Doses [Carcinogen]: 50 MG/KG BW ONCE, Doses [Promoter]: 0, 40 MG DEPOT EVERY 3 MO BEGINNING 1 WK POST CARCINOGEN DOSE (STUDY DURATION: 9 MO), Route [Carcinogen]: INTRAPERITONEAL, Route [Promoter]: SUBCUTANEOUS, Species: MOUSE, Strain/Sex: BALB/FEMALE) is listed as “mammary gland: carcinoma” and the outcome (Carcinogen: METHYLNITROSOUREA, 684-93-5, Doses [Carcinogen]: 50 MG/KG BW ONCE, Doses [Promoter]: 0, 40 MG DEPOT EVERY 3 MO BEGINNING 1 WK PRIOR TO CARCINOGEN DOSE (STUDY DURATION: 9 MO), Route [Carcinogen]: INTRAPERITONEAL, Route [Promoter]: SUBCUTANEOUS, Species: MOUSE, Strain/Sex: BALB/FEMALE) is listed as “mammary gland: carcinoma”.

For `O=C1NS(=O)(=O)c2ccccc21`, the outcome (Carcinogen: FREEZE ULCERATION, Doses [Promoter]: 0, 5% IN DIET BEGINNING IMMEDIATELY, 2, 4, 6 OR 18 WK AFTER ULCERATION OF THE BLADDER BY FREEZING AND CONTINUING FOR DUR, Route [Promoter]: ORAL, Species: RAT, Strain/Sex: F344/MALE) is given as “urinary bladder: transitional cell carcinoma”, the outcome (Carcinogen: METHYLNITROSOUREA, Doses [Carcinogen]: BLADDER IMP, Doses [Promoter]: IN DIET, Route [Carcinogen]: BLADDER IMPLANT, Route [Promoter]: ORAL, Species: RAT, Strain/Sex: WISTAR/FEMALE) is given as “urinary bladder” and the outcome (Carcinogen: N-(4-(5-NITRO-2-FURYL)-2-THIAZOLYL)FORMAMIDE, 24554-26-5, Doses [Carcinogen]: 0.2% IN AIN-76A DIET FOR 4 WK, Doses [Promoter]: 0, 5% IN PROLAB DIET BEGINNING 1 WK POST CARCINOGEN TREATMENT AND CONTINUING FOR 100 WK (STUDY DURATION: 105 WK), Route [Carcinogen]: ORAL, Route [Promoter]: ORAL, Species: RAT, Strain/Sex: F344/MALE) is given as “bladder: papilloma and carcinoma”. The outcome (Carcinogen: N-(4-(5-NITRO-2-FURYL)-2-THIAZOLYL)FORMAMIDE, 24554-26-5, Doses [Carcinogen]: 0.2% IN PROLAB DIET FOR 4 WK, Doses [Promoter]: 0, 5% IN PROLAB DIET BEGINNING 1 WK POST CARCINOGEN TREATMENT AND CONTINUING FOR 100 WK (STUDY DURATION: 105 WK), Route [Carcinogen]: ORAL, Route [Promoter]: ORAL, Species: RAT, Strain/Sex: F344/MALE) was “bladder: papilloma and carcinoma”, the outcome (Carcinogen: N-(4-(5-NITRO-2-FURYL)-2-THIAZOLYL)FORMAMIDE, Doses [Carcinogen]: DIET, Doses [Promoter]: IN DIET, Route [Carcinogen]: ORAL, Route [Promoter]: ORAL, Species: RAT, Strain/Sex: F344/MALE) was “urinary bladder: carcinoma” and the outcome (Carcinogen: N-BUTYL-N-4(HYDROXYBUTYL)NITROSAMINE, 3817-11-6, Doses [Carcinogen]: 0.05% IN DRINKING WATER FOR 2 WK, Doses [Promoter]: 0, 5% IN DIET STARTING POST CARCINOGEN AND CONTINUING FOR 22 WK, LEFT URETER LIGATED 8 D POST CARCINOGEN (STUDY DURATION, Route [Carcinogen]: ORAL, Route [Promoter]: ORAL, Species: RAT, Strain/Sex: F344/MALE) was “bladder: papilloma”. The outcome (Carcinogen: N-BUTYL-N-(4-HYDROXYBUTYL)NITROSAMINE, 3817-11-6, Doses [Carcinogen]: 0.05% IN DRINKING WATER FOR 4 WK, Doses [Promoter]: 0, 5% IN DIET FOR 32 WK POST CARCINOGEN DOSE (STUDY DURATION: 36 WK), Route [Carcinogen]: ORAL, Route [Promoter]: ORAL, Species: RAT, Strain/Sex: F344/MALE) was “bladder: carcinoma or papilloma”, the outcome (Carcinogen: N-[4-(5-NITRO-2-FURYL)-2-THIAZOLYL]FORMAMIDE, 24554-26-5, Doses [Carcinogen]: 0.2% IN DIET FOR 6 WK, Doses [Promoter]: 0, 5% IN PROLAB DIET FOR 72 WK BEGINNING POST CARCINOGEN TREATMENT (STUDY DURATION: 78 WK), Route [Carcinogen]: ORAL, Route [Promoter]: ORAL, Species: RAT, Strain/Sex: F344/MALE) was “urinary bladder: carcinoma, carcinoma or papilloma” and the outcome (Carcinogen: N-[4-(5-NITRO-2-FURYL)-2-THIAZOLYL]FORMAMIDE, Doses [Carcinogen]: 0.2% IN DIET FOR 6 WK, Doses [Promoter]: 0, 3% IN PROLAB DIET FOR 72 WK BEGINNING POST CARCINOGEN TREATMENT (STUDY DURATION: 78 WK), Route [Carcinogen]: ORAL, Route [Promoter]: ORAL, Species: RAT, Strain/Sex: F344/MALE) was “urinary bladder: carcinoma, carcinoma or papilloma”.

In the case of `NN=C(N)N`, the outcome (Carcinogen: AZOXYMETHANE, Doses [Carcinogen]: 2.5 MG/KG IN DISTILLED WATER 1/WK FOR 10 WK, Doses [Promoter]: 100 MG/KG IN 0.9%, NACL, 3/WK FOR 24 WK ADMINISTERED SIMULTANEOUSLY AND POST CARCINOGEN DOSES (STUDY DURATION: 52 WK), Route [Carcinogen]: SUBCUTANEOUS, Route [Promoter]: INTRAGASTRIC, Species: RAT, Strain/Sex: F344/MALE) is listed as “colon: tumor” and the outcome (Carcinogen: N-METHYL-N'-NITRO-N-NITROSOGUANIDINE, 70-25-7, Doses [Carcinogen]: 25 UG/ML IN DRINKING WATER FOR 25 WK, Doses [Promoter]: 0, 25 MG/KG BW 1/2 D FOR 25 WK BEGINNING POST CARCINOGEN TREATMENT (STUDY DURATION: 52 WK), Route [Carcinogen]: ORAL, Route [Promoter]: SUBCUTANEOUS, Species: RAT, Strain/Sex: WISTAR/MALE) is listed as “stomach: adenocarcinoma”.

For `C=CCC1(C(C)C)C(=O)NC(=O)NC1=O`, the outcome (Carcinogen: N-NITROSODIETHYLAMINE, 55-18-5, Doses [Carcinogen]: 75 MG/KG BW IN 0.85% SALINE ONCE, Doses [Promoter]: 0, 453 PPM IN DIET FOR DURATION OF STUDY BEGINNING 2 WK POST CARCINOGEN DOSE (STUDY DURATION: 78 WK), Route [Carcinogen]: INTRAPERITONEAL, Route [Promoter]: ORAL, Species: RAT, Strain/Sex: F344/MALE) is listed as “liver: adenoma”.
